The values below come from patent US20240218022A1, “ANTI-VISTA MACROCYCLIC PEPTIDES AND COMPOSITIONS” (BRISTOL-MYERS SQUIBB COMPANY, priority 2022, published 2024).

SMILES strings stand for the structures. Read-outs that look alike come from different tables or passages of the source. Starred links: 1 amine or outer side, 2 acyl side, 3 side chain; linkers in the order of their positions; H or OH if unused. Positions of bridges follow the written chain, without caps; N, C: chain ends. Non-standard residues stand in square brackets, D forms with d. Residues, ends and D or L forms follow the SMILES beside them. *: point of attachment. Phe(3-Me) = Cc1cccc(C[C@H](N)C(=O)O)c1; γGlu = O=C(O)[C@H](CCC(=O)[*:2])N[*:1]; 2Nal = N[C@@H](Cc1ccc2ccccc2c1)C(=O)O; βAsp = O=C(O)[C@H](CC(=O)[*:2])N[*:1]; NMeN = CN[C@@H](CC(N)=O)C(=O)O; Ahp(2) = CCCCC[C@H](N)C(=O)O; NMeNle = CCCC[C@H](NC)C(=O)O; Tle = CC(C)(C)[C@H](N)C(=O)O; NMeV = CN[C@H](C(=O)O)C(C)C; NMeS = CN[C@@H](CO)C(=O)O; NHexGly = CCCCCCNCC(=O)O; Nle = CCCC[C@H](N)C(=O)O; Aun = NCCCCCCCCCCC(=O)O; Nva = CCC[C@H](N)C(=O)O; AEEA = NCCOCCOCC(=O)O; Allyl = C=CC*

For this test, the target named is T1, mouse VISTA (mVISTA) (Mus musculus, UniProt Q9D659).
T1 construct: expressed in transfected cells; host or cells: Human embryonic kidney 293T cells
T1 sequence (Q9D659 33-308): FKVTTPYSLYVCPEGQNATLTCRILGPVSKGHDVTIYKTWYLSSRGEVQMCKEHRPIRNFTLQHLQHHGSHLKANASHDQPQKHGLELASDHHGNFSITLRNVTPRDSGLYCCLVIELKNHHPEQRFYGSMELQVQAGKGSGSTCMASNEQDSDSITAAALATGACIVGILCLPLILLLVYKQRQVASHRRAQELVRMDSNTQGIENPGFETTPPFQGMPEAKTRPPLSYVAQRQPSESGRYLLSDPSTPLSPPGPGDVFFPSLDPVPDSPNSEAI
The experiment in a line: Cell-Based Binding High-Content Assay For mVISTA (HC CBA mVISTA). An outline of the steps: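 Competition of compound with a biotinylated peptide (final 2 nM, 30 min at RT) for binding to mVISTA on 293T cells, run under no-wash or wash (1 h compound preincubation then removal) formats. Readout by Alexa 647–streptavidin imaging on a high-content platform; four-parameter logistic fit gave IC50.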

The mark [1] stands for this setting: 293T cells expressing mouse VISTA, competition with biotinylated peptide (2 nM), read-out: HC CBA mVISTA IC50.
[2] abbreviates: cell-based binding high-content assay, mVISTA, read-out: HC CBA miPr ISTA IC50.

With `CCCCCCN1CC(=O)N[C@@H](Cc2ccc(O)cc2)C(=O)N[C@@H](CCC)C(=O)N[C@@H](CC(N)=O)C(=O)N[C@@H](CCCNC(=N)N)C(=O)N[C@@H](CC(C)C)C(=O)N[C@@H](CCCCC)C(=O)N2CCC[C@H]2C(=O)N[C@@H](C(C)C)C(=O)N[C@@H](CO)C(=O)N[C@H](C(=O)NCC(=O)O)CSCC(=O)N[C@@H](Cc2ccccc2)C(=O)N[C@@H](Cc2ccc(O)cc2)C(=O)N[C@@H](CC(=O)O)C1=O` [Example 1047] ({CH2CO}-FYD[NHexGly]Y[Nva]NRL[Ahp(2)]PVSCG-OH; thioether N-14), the concentration for half-maximal inhibition (IC50) under setting [1] turned out to be 32.2 nM.
On to `CCCCCCN1CC(=O)N[C@@H](Cc2ccc(O)cc2)C(=O)N[C@@H](CCC)C(=O)NCC(=O)N[C@@H](CCCNC(=N)N)C(=O)N[C@@H](CC(C)C)C(=O)N[C@@H](CCCCC)C(=O)N2CCC[C@H]2C(=O)N[C@@H](C(C)C)C(=O)N[C@@H](CO)C(=O)N[C@H](C(=O)NCC(N)=O)CSCC(=O)N[C@@H](Cc2ccccc2)C(=O)N[C@@H](Cc2ccc(O)cc2)C(=O)N[C@@H](CC(=O)O)C1=O` [Example 1060] ({CH2CO}-FYD[NHexGly]Y[Nva]GRL[Ahp(2)]PVSCG-NH2; thioether N-14), for which, under setting [1], the IC50 came out at 29.9 nM.
As for `CCCCCCN1CC(=O)N[C@@H](Cc2ccc(O)cc2)C(=O)N[C@@H](CC(C)C)C(=O)N[C@@H](CC(N)=O)C(=O)N[C@@H](CCCNC(=N)N)C(=O)N(C)[C@@H](CO)C(=O)N[C@@H](CCCCC)C(=O)N2CCC[C@H]2C(=O)N[C@@H](C(C)(C)C)C(=O)N[C@@H](CO)C(=O)N[C@H](C(=O)NCCOCCOCC(=O)N[C@@H](CCC(=O)NCCOCCOCC(=O)NCCCCCCCCCCC(=O)O)C(=O)O)CSCC(=O)N[C@@H](Cc2ccccc2)C(=O)N[C@@H](Cc2c[nH]c3ccccc23)C(=O)N[C@@H](CC(=O)O)C1=O` [compound 2266] ({CH2CO}-FWD[NHexGly]YLNR[NMeS][Ahp(2)]P[Tle]SC[AEEA][γGlu][AEEA][Aun]-OH; thioether N-14), the IC50 (read-out: HC CBA mVISTA IC50) came out at 37.9 nM.
With `CCCCCCN1CC(=O)N[C@@H](Cc2ccc(O)cc2)C(=O)N[C@@H](CC(C)C)C(=O)N[C@@H](CC(N)=O)C(=O)N[C@@H](CCCNC(=N)N)C(=O)N[C@@H](CC(C)C)C(=O)N[C@@H](CCCCC)C(=O)N2CCC[C@H]2C(=O)N[C@@H](C(C)C)C(=O)N[C@@H](C(C)C)C(=O)N[C@H](C(=O)N[C@@H](CO)C(=O)O)CSCC(=O)N[C@@H](Cc2cccc(C)c2)C(=O)N[C@@H](Cc2c[nH]c3ccccc23)C(=O)N[C@@H](CC(=O)O)C1=O` [compound 1426] ({CH2CO}-[Phe(3-Me)]WD[NHexGly]YLNRL[Ahp(2)]PVVCS-OH; thioether N-14), the 50% inhibitory concentration (IC50) (the 19th table, scaffold drawing 22, read-out: HC CBA mVISTA IC50) worked out at 4.1 nM.
Turning to `CCCCCCN1CC(=O)N[C@@H](Cc2ccc(O)cc2)C(=O)N[C@@H](CCCC)C(=O)N[C@@H](CC(N)=O)C(=O)N[C@@H](CCCNC(=N)N)C(=O)N[C@@H](CC(C)C)C(=O)N[C@@H](CCCCC)C(=O)N2CCC[C@H]2C(=O)N[C@@H](C(C)C)C(=O)N2CCC[C@H]2C(=O)N[C@H](C(=O)NCC(=O)O)CSCC(=O)N[C@@H](Cc2ccccc2)C(=O)N[C@@H](Cc2ccc(O)cc2)C(=O)N[C@@H](CC(=O)O)C1=O` [compound 1121] ({CH2CO}-FYD[NHexGly]Y[Nle]NRL[Ahp(2)]PVPCG-OH; thioether N-14), for the setting “read-out: HC CBA mVISTA IC50”, the IC50 was determined as 32.4 nM.
For `CCCCCCN1CC(=O)N[C@@H](Cc2ccc(O)cc2)C(=O)N[C@@H](CCCC)C(=O)N[C@@H](CC(N)=O)C(=O)N[C@@H](CCCNC(=N)N)C(=O)N(C)[C@@H](CCCC)C(=O)N[C@@H](CCCCC)C(=O)N2CCC[C@H]2C(=O)N[C@@H](C(C)C)C(=O)N[C@@H](CC(=O)O)C(=O)N[C@H](C(=O)NCC(=O)NCCOCCOCC(=O)N[C@@H](CC(=O)O)C(=O)NCCOCCOCC(=O)NCCCCCCCCCCC(=O)O)CSCC(=O)N[C@@H](Cc2ccccc2)C(=O)N[C@@H](Cc2c[nH]c3ccccc23)C(=O)N[C@@H](CC(=O)O)C1=O` [compound 2010] ({CH2CO}-FWD[NHexGly]Y[Nle]NR[NMeNle][Ahp(2)]PVDCG[AEEA]D[AEEA][Aun]-OH; thioether N-14), the IC50 under setting [2] is 15.9 nM.
For `CCCCCCN1CC(=O)N[C@@H](Cc2ccc(O)cc2)C(=O)N[C@@H](CCCC)C(=O)N[C@@H](CC(N)=O)C(=O)N[C@@H](CCCNC(=N)N)C(=O)N(C)[C@@H](CC(N)=O)C(=O)N[C@@H](CCCCC)C(=O)N2CCC[C@H]2C(=O)N[C@@H](C(C)C)C(=O)N[C@@H](CC(=O)O)C(=O)N[C@H](C(=O)NCC(=O)O)CSCC(=O)N[C@@H](Cc2ccc3ccccc3c2)C(=O)N[C@@H](Cc2c[nH]c3ccccc23)C(=O)N[C@@H](CC(=O)O)C1=O` [compound 1241] ({CH2CO}-[2Nal]WD[NHexGly]Y[Nle]NR[NMeN][Ahp(2)]PVDCG-OH; thioether N-14), under “cell-based binding high-content assay, mVISTA, the 15th table, read-out: HC CBA mVISTA IC50”, the half-maximal inhibitory concentration (IC50) stood at 35.1 nM.
Take `CCCCCCN1CC(=O)N[C@@H](Cc2ccc(O)cc2)C(=O)N[C@@H](CC(C)C)C(=O)N[C@@H](CC(N)=O)C(=O)N[C@@H](CCCNC(=N)N)C(=O)N(C)[C@@H](C(C)C)C(=O)N[C@@H](CCCCC)C(=O)N2CCC[C@H]2C(=O)N[C@@H](C(C)(C)C)C(=O)N[C@@H](CC(=O)O)C(=O)N[C@H](C(=O)N[C@@H](CC(=O)NCCOCCOCC(=O)N[C@@H](CC(=O)O)C(=O)NCCOCCOCC(=O)NCCCCCCCCCCC(=O)O)C(=O)O)CSCC(=O)N[C@@H](Cc2ccccc2)C(=O)N[C@@H](Cc2ccc(O)cc2)C(=O)N[C@@H](CC(=O)O)C1=O` [compound 2037] ({CH2CO}-FYD[NHexGly]YLNR[NMeV][Ahp(2)]P[Tle]DC[βAsp][AEEA]D[AEEA][Aun]-OH; thioether N-14): the IC50 under setting [2] came to 34.4 nM.
Turning to `CCCCCCN1CC(=O)N[C@@H](Cc2ccc(O)cc2)C(=O)N[C@@H](CC(C)C)C(=O)N[C@@H](CC(=O)O)C(=O)N[C@@H](CCCNC(=N)N)C(=O)N(C)[C@@H](CCCC)C(=O)N[C@@H](CCCCC)C(=O)N2CCC[C@H]2C(=O)N[C@@H](C(C)(C)C)C(=O)N[C@@H](CC(N)=O)C(=O)N[C@H](C(=O)NCCOCCOCC(=O)N[C@@H](CC(=O)NCCOCCOCC(=O)NCCCCCCCCCCC(=O)O)C(=O)O)CSCC(=O)N[C@@H](Cc2ccccc2)C(=O)N[C@@H](Cc2cccc(C)c2)C(=O)N[C@@H](CC(=O)O)C1=O` [Example 2212] ({CH2CO}-F[Phe(3-Me)]D[NHexGly]YLDR[NMeNle][Ahp(2)]P[Tle]NC[AEEA][βAsp][AEEA][Aun]-OH; thioether N-14), under “read-out: HC CBA mVISTA IC50”, the IC50 was determined as 34.9 nM.
As to `CCCCCCN1CC(=O)N[C@@H](Cc2ccc(O)cc2)C(=O)N[C@@H](CCCCC)C(=O)N[C@@H](CC(N)=O)C(=O)N[C@@H](CCCNC(=N)N)C(=O)N[C@@H](Cc2c[nH]c3ccccc23)C(=O)N[C@@H](CCCCC)C(=O)N2CCC[C@H]2C(=O)N[C@@H](C(C)C)C(=O)N[C@@H](CO)C(=O)N[C@H](C(=O)N[C@@H](CCC(=O)NCCCCCCCCCCC(=O)O)C(=O)O)CSCC(=O)N[C@@H](Cc2ccccc2)C(=O)N[C@@H](Cc2ccc(O)cc2)C(=O)N[C@@H](CC(=O)O)C1=O` [Example 2129] ({CH2CO}-FYD[NHexGly]Y[Ahp(2)]NRW[Ahp(2)]PVSC[γGlu][Aun]-OH; thioether N-14), the half-maximal inhibitory concentration (IC50) (read-out: HC CBA mVISTA IC50) was determined as 16.6 nM.
Same read-out and setting: as for `C=CCOc1ccc(C[C@@H]2NC(=O)CSC[C@@H](C(=O)NCC(N)=O)NC(=O)[C@H](CO)NC(=O)[C@H](C(C)C)NC(=O)[C@@H]3CCCN3C(=O)[C@H](CCCCC)NC(=O)[C@H](CCCC)N(C)C(=O)[C@H](CCCNC(=N)N)NC(=O)[C@H](CC(N)=O)NC(=O)[C@H](CC(C)C)NC(=O)[C@H](Cc3ccc(O)cc3)NC(=O)CN(CCCCCC)C(=O)[C@H](CC(=O)O)NC(=O)[C@H](Cc3ccc(O)cc3)NC2=O)cc1` [compound 1222] ({CH2CO}-Y(Allyl)YD[NHexGly]YLNR[NMeNle][Ahp(2)]PVSCG-NH2; thioether N-14), the figure is 21.7 nM.
